PMC6447596 (2019)

Assays:
[1] = tested on: Oligo A (DNA, G4) GGATGGGGTGGGGAGG; experiment: CD melting (264 nm); conditions: 5 mM K+, 95 mM Li+ (5 K buffer); 5 µM oligo; 2 eq RHPS4; 10 mM Li cacodylate pH 7.2
[2] = tested on: F21D (DNA, G4) GGGTTAGGGTTAGGGTTAGGG; experiment: FRET melting; conditions: 5 mM K+, 95 mM Li+ (5 K buffer); 10 mM Li cacodylate pH 7.2; 0.2 µM F21D; sub-micromolar RHPS4; printed 'at least 15 °C'
[3] = tested on: Oligo A (DNA, G4) GGATGGGGTGGGGAGG; experiment: UV-Vis titration; conditions: 5 mM K+, 95 mM Li+ (5 K buffer); 10 mM Li cacodylate pH 7.2; 20 µM RHPS4 titrated with annealed oligo; two-state direct fit
[4] = tested on: Oligo B (DNA, G4) GGGGGATGCGGGGG; experiment: CD melting (260 nm alone, 295 nm with RHPS4); conditions: 5 mM K+, 95 mM Li+ (5 K buffer); 5 µM oligo; 2 eq RHPS4; 10 mM Li cacodylate pH 7.2
[5] = tested on: Oligo B (DNA, G4) GGGGGATGCGGGGG; experiment: UV-Vis titration; conditions: 5 mM K+, 95 mM Li+ (5 K buffer); 10 mM Li cacodylate pH 7.2; 20 µM RHPS4 titrated with annealed oligo; two-state direct fit

- melting temperature increase [1]: 7.2 °C
- ΔTm [2]: 15 °C
- Ka [3]: 0.5 ± 0.3 × 10^6 /M
- melting temperature increase [4]: 14.9 °C
- Ka [5]: 0.5 ± 0.3 × 10^6 /M
Compound: Cc1cc2c3c([n+](C)c4ccc(F)cc4c3c1)-c1cc(F)ccc1N2C
